In patent US11111230B2 (ADLAI NORTYE BIOPHARMA CO., LTD., priority 2017, dated 2021) one finds IC50 data, which are given here for 41 molecules.

The term IC50 denotes the concentration that inhibits the measured activity by half.

For one assay, the system named is Hela cells. Description: Activity in Hela cells (interferon-γ induced, kynurenine readout with Ehrlich's reagent). It counts as cell-based. The conditions noted are these: Homo sapiens, interferon-γ 50 ng/mL, tryptophan 16 mg/L, 48 hours, absorption at 480 nm. The procedure:
Example 1: Study on the Activity of the Compound of the Present Invention in Hela Cells
Hela cells were seeded in 96-well culture plates and incubated at 37° C., 100% relative humidity, 5% CO2 incubator for 24 hours. The compound was dissolved in DMSO and diluted to an appropriate concentration, and then the compound was diluted 100-fold with DMEM medium containing interferon-γ and 10% fetal bovine serum to the final concentration of effect. Aspirate the old medium from the 96-well plate and add 200 μL of each medium containing compound and interferon-γ from the previous step. The content of tryptophan in the medium is 16 mg/L, and the concentration of interferon-γ is 50 ng/mL. The cells were placed in a 37° C., 100% relative humidity, and 5% CO2 incubator for 48 hours, then 140 μL of the cell culture supernatant was mixed with 15 μL of trichloroacetic acid, and placed at 52° C. for 30 min, then centrifuged at room temperature to take the centrifugal supernatant. Mix with an equal volume of Ehrlich's reagent, measure the light absorption at 480 nm, and calculate the IC50 values.

The target in another assay is T1, human IDO1 protein (Homo sapiens, UniProt P14902).
T1 construct: expressed in transfected cells; host or cells: HEK293
T1 sequence (P14902 whole entry): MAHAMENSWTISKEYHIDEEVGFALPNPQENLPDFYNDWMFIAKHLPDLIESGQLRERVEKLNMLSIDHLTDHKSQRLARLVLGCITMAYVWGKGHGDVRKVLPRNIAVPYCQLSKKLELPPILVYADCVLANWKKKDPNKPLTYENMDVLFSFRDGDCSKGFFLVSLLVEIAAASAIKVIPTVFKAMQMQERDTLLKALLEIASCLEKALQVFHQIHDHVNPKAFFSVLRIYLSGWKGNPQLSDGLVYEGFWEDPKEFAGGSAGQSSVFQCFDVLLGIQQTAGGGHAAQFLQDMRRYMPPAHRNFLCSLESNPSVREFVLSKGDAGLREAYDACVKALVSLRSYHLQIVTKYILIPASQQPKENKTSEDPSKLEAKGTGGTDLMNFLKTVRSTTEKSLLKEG
As to the kind of experiment: Activity in HEK293 cells highly expressing human IDO1 protein. It is filed as cell-based. The conditions noted are these: HEK293-IDO cells, tryptophan 16 mg/L, 24 hours, absorption at 480 nm; read-out: IC50 (HEK293 cell). The procedure:
Example 2: Study on the Activity of the Present Invention in HEK293 Cells Highly Expressing Human IDO1 Protein
HEK293-IDO cells with high expression of human IDO1 protein were prepared by electrotransformation, and the cells were seeded in 96-well culture plates, and cultured at 37° C., 100% relative humidity, and 5% CO2 incubator for 24 hours. Dissolve in DMSO and dilute to the appropriate concentration, then use DMEM medium containing 10% fetal bovine serum to dilute the candidate 100-fold to the final concentration. Aspirate the old medium from the 96-well plate and add 200 μL of the medium contained in the previous step to each well. The content of tryptophan in the medium is 16 mg/L. The cells were placed in a 37° C., 100% relative humidity, and 5% CO2 incubator for 24 hours. 140 μL of the cell culture supernatant was mixed with 15 μL of trichloroacetic acid and placed at 52° C. for 30 min. Mix with an equal volume of Ehrlich's reagent, measure the light absorption at 480 nm, and calculate the IC50 values.

Consider `Cc1cc2nccc(C3CCC4(CC3)CC4C(=O)Nc3ccc(Cl)c(F)c3)c2cc1F` (centres unmarked) [Compound 86], for which the IC50 with Hela cells fell in the range of 0.1 to 10 nM.

Turning to `Cc1ccc(NC(=O)N2CC23CCC(c2ccnc4ccc(F)cc24)CC3)cc1` (centres unmarked) [Compound 24], in the assay with Hela cells, the IC50 is more than 100 nM. As to `CC1(C(=O)Nc2ccc(Cl)cc2)CC12CCC(c1ccnc3ccc(F)cc13)CC2` (centres unmarked) [Compound 106, N-(4-chlorophenyl)-6-(6-fluoroquinolin-4-yl)-1-methylspiro[2.5]octane-1-carboxamide], the IC50 in the assay with Hela cells and at human IDO1 protein was more than 100 nM each time.

Molecule `Cc1cc2nccc(C3CCC4(CC3)CC4C(=O)Nc3ccc(Br)cc3)c2cc1F` (centres unmarked) [Compound 85] registered an IC50 in the assay with Hela cells of 0.1 to 10 nM. Consider `O=C(Nc1ccc(Cl)cc1)[C@@H]1CC12CCC(c1ccnc3ccc(F)cc13)CC2` (single isomer, unassigned) [Compound 10b], for which the IC50 in the assay on Hela cells and at human IDO1 protein was more than 100 nM each time.

Regarding `COC(=O)COc1ccc(NC(=O)C2CC23CCC(c2ccnc4cc(C)c(F)cc24)CC3)cc1` (centres unmarked) [Compound 111, Methyl 2-(4-(6-(6-fluoro-7-methylquinolin-4-yl)spiro[2.5]octane-1-carboxamido)phenoxy)acetate], the IC50 in the assay on Hela cells and on human IDO1 protein was more than 100 nM throughout.

In the case of `O=C(Nc1ccc(Cl)cc1)C1COC12CCC(c1ccnc3ccc(F)cc13)CC2` (centres unmarked) [Compound 50, N-(4-chlorophenyl)-7-(6-fluoroquinolin-4-yl)-1-oxaspiro[3.5]nonane-3-carboxamide], in the assay with Hela cells, the IC50 lay in the range of 10 to 100 nM. For the molecule `N#Cc1ccc(NS(=O)(=O)C2CC23CCC(c2ccnc4ccc(F)cc24)CC3)cc1` (centres unmarked) [Compound 19], the IC50 with Hela cells lay within 0.1 to 10 nM. In the case of `O=C(Nc1ccc(Cl)s1)C1CC12CCC(c1ccnc3ccc(F)cc13)CC2` (centres unmarked) [Compound 13, N-(5-chlorothiophen-2-yl)-6-(6-fluoroquinolin-4-yl)spiro[2.5]octane-1-carboxamide], the IC50 with Hela cells and on human IDO1 protein was 10 to 100 nM each time. In the assay with Hela cells, `Cc1ccc(NS(=O)(=O)C2CC23CCC(c2ccnc4ccc(F)cc24)CC3)cc1` (centres unmarked) [Compound 18] had an IC50 of 0.1 to 10 nM. In the case of `O=C(Nc1ccc(C(F)(F)F)cc1)C1CC12CCC(c1ccnc3ccc(F)cc13)CC2` (centres unmarked) [Compound 5, 6-(6-fluoroquinolin-4-yl)-N-(4-(trifluoromethyl)phenyl)spiro[2.5]octane-1-carboxamide], the IC50 was more than 100 nM with Hela cells and 10 to 100 nM at human IDO1 protein. `O=C(Nc1ccc(C(F)(F)F)cc1)C1COC12CCC(c1ccnc3ccc(F)cc13)CC2` (centres unmarked) [Compound 52] showed an IC50 in the assay on Hela cells of 10 to 100 nM.

Molecule `CN1CC(C(=O)Nc2ccc(Br)cc2)C2(CCC(c3ccnc4ccc(F)cc34)CC2)C1` (centres unmarked) [Compound 90] yielded an IC50 in the assay with Hela cells of more than 100 nM. For `COc1cc2nccc(C3CCC4(CC3)CC4C(=O)Nc3ccc(Cl)cc3)c2cc1OC` (centres unmarked) [Compound 101], the IC50 lay within 0.1 to 10 nM in the assay on Hela cells and 10 to 100 nM on human IDO1 protein. On to `O=S(=O)(Nc1ccc(F)cc1)C1CC12CCC(c1ccnc3ccc(F)cc13)CC2` (centres unmarked) [Compound 15], for which the IC50 in the assay on Hela cells lay in the range of 0.1 to 10 nM. Still for that read-out and setting: as for `N#Cc1ccc(NC(=O)C2COC23CCC(c2ccnc4ccc(F)cc24)CC3)cc1` (centres unmarked) [Compound 55], the figure is 10 to 100 nM. With `O=C(Nc1ccc(Cl)cc1)C1CC12CCC(c1ccnc3ccc(F)cc13)CC2` (centres unmarked) [Compound 1, N-(4-chlorophenyl)-6-(6-fluoroquinolin-4-yl)spiro[2.5]octane-1-carboxamide], the figures for the IC50 with Hela cells and on human IDO1 protein were 0.1 to 10 nM and 10 to 100 nM, respectively. On to `Cc1cc2nccc(C3CCC4(CC3)CC4C(=O)Nc3ccc(OCCO)cc3)c2cc1F` (centres unmarked) [Compound 112, 6-(6-fluoro-7-methylquinolin-4-yl)-N-(4-(2-hydroxyethoxy)phenyl)spiro[2.5]octane-1-carboxamide], for which the IC50 with Hela cells was 10 to 100 nM; on human IDO1 protein, more than 100 nM.

As to `O=C(Nc1ccc(Cl)cc1)C1CC12CCC(c1ccnc3cc4c(cc13)OCCO4)CC2` (centres unmarked) [Compound 103, N-(4-chlorophenyl)-6-(2,3-dihydro-[1,4]dioxino[2,3-g]quinolin-9-yl)spiro[2.5]octane-1-carborboxamide], the IC50 in the assay with Hela cells and at human IDO1 protein was more than 100 nM each time. As for `N#Cc1ccc(NC(=O)C2CC23CCC(c2ccnc4ccc(F)cc24)CC3)cc1` (centres unmarked) [Compound 6, N-(4-cyanophenyl)-6-(6-fluoroquinolin-4-yl)spiro[2.5]octane-1-carboxamide], the IC50 in the assay with Hela cells and on human IDO1 protein was 10 to 100 nM in each case. Take `O=C(NCc1ccc(Cl)cc1)C1CC12CCC(c1ccnc3ccc(F)cc13)CC2` (centres unmarked) [Compound 3, N-(4-chlorobenzyl)-6-(6-fluoroquinolin-4-yl)spiro[2.5]octane-1-carboxamide]: the IC50 in the assay with Hela cells and on human IDO1 protein was more than 100 nM throughout.

In turn, `CN1CC(C(=O)Nc2ccc(C(F)(F)F)cc2)C2(CCC(c3ccnc4ccc(F)cc34)CC2)C1` (centres unmarked) [Compound 89] registered an IC50 in the assay on Hela cells of more than 100 nM.

`O=C(Nc1ccc(Cl)cc1)C1CC12CCC(c1ccnc3cc(CO)c(F)cc13)CC2` (centres unmarked) [Compound 114, N-(4-chlorophenyl)-6-(6-fluoro-7-(hydroxymethyl)quinolin-4-yl)spiro[2.5]octane-1-carboxamide]: the IC50 lay in the range of 0.1 to 10 nM with Hela cells and 10 to 100 nM on human IDO1 protein. Turning to `O=C(Nc1ccc(Cl)cc1)C1CC12CCC(O)(c1ccnc3ccc(F)cc13)CC2` (centres unmarked) [Compound 104, N-(4-chlorophenyl)-6-(6-fluoroquinolin-4-yl)-6-hydroxyspiro[2.5]octane-1-carboxamide], the IC50 in the assay with Hela cells and on human IDO1 protein was more than 100 nM throughout. Consider `COCCOc1ccc(NC(=O)[C@@H]2C[C@]23CC[C@H](c2ccnc4cc(C)c(F)cc42)CC3)cc1` (single isomer, unassigned) [Compound 99], for which the IC50 with Hela cells and on human IDO1 protein was more than 100 nM each time. In the case of `Cc1ccc(NC(=O)C2COC23CCC(c2ccnc4ccc(F)cc24)CC3)cc1` (centres unmarked) [Compound 54], in the assay on Hela cells, the IC50 is 10 to 100 nM. For the molecule `O=C(NCCc1ccc(Cl)cc1)C1CC12CCC(c1ccnc3ccc(F)cc13)CC2` (centres unmarked) [Compound 4, N-(4-chlorophenethyl)-6-(6-fluoroquinolin-4-yl)spiro[2.5]octane-1-carboxamide], the IC50 in the assay on Hela cells and on human IDO1 protein was more than 100 nM each time.

In the case of `COc1ccc(NC(=O)C2CC23CCC(c2ccnc4cc(C)c(F)cc24)CC3)cc1` (centres unmarked) [Compound 84], the IC50 with Hela cells lay in the range of 0.1 to 10 nM. Turning to `Cc1cc2nccc(C3CCC4(CC3)CC4C(=O)Nc3ccc(F)cc3)c2cc1F` (centres unmarked) [Compound 80, 6-(6-fluoro-7-methylquinolin-4-yl)-N-(4-fluorophenyl)spiro[2.5]octane-1-carboxamide], the IC50 in the assay on Hela cells fell in the range of 0.1 to 10 nM. Take `COCc1cc2nccc(C3CCC4(CC3)CC4C(=O)Nc3ccc(Cl)cc3)c2cc1F` (centres unmarked) [Compound 115, N-(4-chlorophenyl)-6-(6-fluoro-7-(methoxymethyl)quinolin-4-yl)spiro[2.5]octane-1-carb oxamide]: the IC50 in the assay with Hela cells was 0.1 to 10 nM. Same read-out and setting: as for `O=C(Nc1ccc(F)cc1)C1COC12CCC(c1ccnc3ccc(F)cc13)CC2` (centres unmarked) [Compound 51], the figure is 10 to 100 nM. Take `O=S(=O)(Nc1ccc(Cl)cc1)C1CC12CCC(c1ccnc3ccc(F)cc13)CC2` (centres unmarked) [Compound 14, N-(4-chlorophenyl)-6-(6-fluoroquinolin-4-yl)spiro[2.5]octane-1-sulfonamide]: in the assay on Hela cells, the IC50 fell in the range of 0.1 to 10 nM. `Cc1cc2nccc(C3CCC4(CC3)CC4C(=O)Nc3ccc(C#N)cc3)c2cc1F` (centres unmarked) [Compound 81]: in the assay with Hela cells, the IC50 was 0.1 to 10 nM.

In the assay with Hela cells, `Cc1cc2nccc(C3CCC4(CC3)CC4C(=O)Nc3ccc(C(F)(F)F)cc3)c2cc1F` (centres unmarked) [Compound 82] displayed an IC50 of 0.1 to 10 nM. Same read-out and setting: under `Cc1ccc(NC(=O)C2CC23CCC(c2ccnc4cc(C)c(F)cc24)CC3)cc1` (centres unmarked) [Compound 83] stands 0.1 to 10 nM; under `COc1ccc(NS(=O)(=O)C2CC23CCC(c2ccnc4ccc(F)cc24)CC3)cc1` (centres unmarked) [Compound 17], 0.1 to 10 nM. Consider `COc1ccc(NC(=O)C2COC23CCC(c2ccnc4ccc(F)cc24)CC3)cc1` (centres unmarked) [Compound 53], for which, in the assay on Hela cells, the IC50 fell in the range of 10 to 100 nM. Molecule `CN1CC(C(=O)Nc2ccc(Cl)cc2)C2(CCC(c3ccnc4ccc(F)cc34)CC2)C1` (centres unmarked) [Compound 87, N-(4-chlorophenyl)-8-(6-fluoroquinolin-4-yl)-2-methyl-2-azaspiro[4.5]decane-4-carboxamide] had an IC50 with Hela cells of more than 100 nM. As to `CN1CC(C(=O)Nc2ccc(C#N)cc2)C2(CCC(c3ccnc4ccc(F)cc34)CC2)C1` (centres unmarked) [Compound 91], the IC50 in the assay on Hela cells was more than 100 nM. In the assay with Hela cells, `CN1CC(C(=O)Nc2ccc(F)cc2)C2(CCC(c3ccnc4ccc(F)cc34)CC2)C1` (centres unmarked) [Compound 88] yielded an IC50 of more than 100 nM. In the assay on Hela cells, `O=S(=O)(Nc1ccc(C(F)(F)F)cc1)C1CC12CCC(c1ccnc3ccc(F)cc13)CC2` (centres unmarked) [Compound 16] came in with an IC50 of 0.1 to 10 nM.
